Bounds are passed on as bounds.

The test system of assay [1] is breast cancer cells (MDA-MB-231). Description: Cancer cell line growth inhibition, Sulforhodamine B assay, MDA-MB-231. In kind it is cell-based. The following applies: Homo sapiens, 120 h; Table 2; MDA-MB-231, 5 days, SRB; read-out: Cancer Cell Line GI50 Range MDA-MB-231. As for the experimental part: Breast cancer cells (MDA-MB-231 and MDA-MB-468), colon cancer cells (HCT116) and ovarian cancer cells (PA-1 and OVCAR-3) were seeded (1000 to 4000 in 80 μl per well depending on the cell growth rate) into 96 well plates 24 hours before compound overlay. Compounds were prepared as 10 mM stock solutions in 100% DMSO which were diluted with DMEM (Dulbecco's Modified Eagle's Medium) cell growth Medium (Invitrogen, Burlington, ON, Canada) containing 10% FBS (Fetal Bovine Serum) to concentrations ranging from 50 nM to 250 μM. Aliquots (20 μl) from each concentration were overlaid to 80 μl of the pre-seeded cells in the 96 well plates to make final concentrations of 10 nM to 50 μM. The cells were cultured for 5 days before the Sulforhodamine B assay (SRB) was performed to determine the compound's cell growth inhibition activity.
Sulforhodamine B (purchased from Sigma, Oakville, ON, Canada) is a water-soluble dye that binds to the basic amino acids of the cellular proteins. Thus, colorimetric measurement of the bound dye provides an estimate of the total protein mass that is related to the cell number. the cells are fixed in situ by gently aspirating off the culture media and adding 50 μl ice cold 10% Trichloroacetic Acid (TCA) per well and incubate at 4° C. for 30-60 min, The plates are washed with H2O five times and allowed to air dry for 5 min. Addition of 50 μl 0.4% (w/v) SRB solution in 1% (v/v) acetic acid to each well and incubation for 30 min at RT completes the staining reaction. Following staining, plates are washed four times with 1% acetic acid to remove unbound dye and then allowed to air dry for 5 min. The stain is solubilized with 100 μl of 10 mM Tris pH 10.5 per well. Absorbance is read at 570 nm.
The percentage (%) of relative growth inhibition was calculated by comparing to DMSO treated only cells (100%). GI50's were determined for compounds with cytotoxic activity. The GI50 was calculated using GraphPad PRISM software (GraphPad Software, Inc., San Diego, Calif., USA).
In Table 2 below, GI50 value ranges for compound examples against breast cancer cell lines (MDA-MB-231), colon cancer cell lines (HCT116) and ovarian cancer cell lines (PA-1) are given.

The subject of assay [2] is colon cancer cells (HCT116). The assay is described as follows: Cancer cell line growth inhibition, Sulforhodamine B assay, HCT116. In kind it is cell-based. The settings on record: Homo sapiens, HCT-116, 120 h, Table 2; HCT116, 5 days, SRB; read-out: Cancer Cell Line GI50 Range HCT116. The essentials:
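HCT116 cells, 1000–4000 per well, seeded 24 h ahead, then treated 5 days with compound at 10 nM to 50 μM final in DMEM with 10% FBS. Growth measured by sulforhodamine B staining after TCA fixation, A570; GI50 from inhibition relative to DMSO-only cells.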

The test system of assay [3] is Colon 12 tumor initiating cells. Description: Tumor-initiating cell growth inhibition, Alamar Blue assay, colon TICs. In kind it is cell-based. The following applies: 216 h; Table 2; colon TICs, 9 days, Alamar Blue; read-out: Tumor Initiating Cell GI50 Range Colon 12. The essentials: (§1)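 Colon TICs (4,000/well, non-TC plates) and ovarian TICs (1,000/well, TC plates) kept in serum-free DMEM:F12 with B-27, heparin, bFGF and EGF. Compound added after 24 h at 0.1% DMSO, then 9 days (colon) or 6 days (ovarian) at 37° C. GI50 from Alamar Blue fluorescence (ex 544/em 590) after 4 h.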

For assay [4], the system named is ovarian cancer cells (PA-1). Description: Cancer cell line growth inhibition, Sulforhodamine B assay, PA-1. The following applies: 120 h; Table 2; PA-1, 5 days, SRB; read-out: Cancer Cell Line GI50 Range PA-1. In kind it is cell-based. The method, boiled down: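 PA-1 ovarian cancer cells seeded 24 h before compound, then exposed to final 10 nM to 50 μM in DMEM/10% FBS for 5 days. Cell mass measured by TCA fixation and sulforhodamine B staining, absorbance 570 nm; GI50 derived from growth inhibition relative to DMSO-treated cells.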

In another assay the target is T1, human TTK (Homo sapiens, UniProt P33981).
T1 construct: Active TTK was purchased from Invitrogen as an amino terminal GST fusion of full length human TTK; purchased Invitrogen
T1 sequence (P33981 1-857): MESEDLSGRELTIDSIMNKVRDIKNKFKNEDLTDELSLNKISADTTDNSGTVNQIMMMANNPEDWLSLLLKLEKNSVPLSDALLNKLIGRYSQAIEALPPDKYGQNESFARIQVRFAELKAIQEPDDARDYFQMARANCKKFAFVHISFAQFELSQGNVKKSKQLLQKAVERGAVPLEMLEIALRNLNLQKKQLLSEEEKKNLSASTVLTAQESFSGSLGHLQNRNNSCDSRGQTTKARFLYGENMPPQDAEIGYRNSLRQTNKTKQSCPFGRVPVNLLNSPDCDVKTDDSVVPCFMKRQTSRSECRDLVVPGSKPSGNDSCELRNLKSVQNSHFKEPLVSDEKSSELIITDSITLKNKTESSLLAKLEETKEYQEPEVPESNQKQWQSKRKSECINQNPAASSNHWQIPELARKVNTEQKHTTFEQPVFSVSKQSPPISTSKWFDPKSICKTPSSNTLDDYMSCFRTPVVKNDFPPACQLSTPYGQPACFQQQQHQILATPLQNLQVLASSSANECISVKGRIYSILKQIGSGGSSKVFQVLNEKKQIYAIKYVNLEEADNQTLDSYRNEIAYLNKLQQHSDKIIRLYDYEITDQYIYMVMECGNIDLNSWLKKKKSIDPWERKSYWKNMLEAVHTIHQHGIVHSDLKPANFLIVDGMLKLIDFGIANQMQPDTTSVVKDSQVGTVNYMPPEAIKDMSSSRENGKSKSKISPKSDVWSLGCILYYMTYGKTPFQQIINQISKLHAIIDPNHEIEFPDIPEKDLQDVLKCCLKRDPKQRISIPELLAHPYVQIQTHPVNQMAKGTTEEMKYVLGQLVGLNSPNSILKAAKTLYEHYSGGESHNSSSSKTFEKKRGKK
Description: TTK inhibition assay (indirect ELISA). The assay is classed as biochemical. The following applies: Table 2; 16 μM ATP (asterisk); read-out: TTK IC50 Range. The method, boiled down:
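Activity detected by indirect ELISA after compounds sat with full-length GST-TTK for 5 min prior to starting the reaction with ATP. IC50 came from a four-parameter logistic curve of % inhibition, calculated against background and uninhibited control wells.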

Assay [5] relates to Ovarian 2393A tumor initiating cells. Description: Tumor-initiating cell growth inhibition, Alamar Blue assay, ovarian TICs. In kind it is cell-based. The settings on record: 144 h; Table 2; ovarian TICs, 6 days, Alamar Blue; read-out: Tumor Initiating Cell GI50 Range Ovarian 2393A. The method, boiled down: as §1

As to `Cc1cc(-c2cnn3c(NCC4CCOCC4)cc(Oc4cccc(F)c4)nc23)ccc1C(=O)NC1CC1` [Example B12, N-cyclopropyl-4-(5-(3-fluorophenoxy)-7-(((tetrahydro-2H-pyran-4-yl)methyl)amino)pyrazolo[1,5-a]pyrimidin-3-yl)-2-methylbenzamide], the GI50 in assay [1], in assay [2], in assay [3], in assay [4] and in assay [5] was at most 100 nM in each case. Also, at human TTK, the IC50 is below 100 nM.

As for `Cc1cc(-c2cnn3c(NCCCN4CCOCC4)cc(Oc4ccccc4)nc23)ccc1C(=O)NC1CC1` [Example B19, N-cyclopropyl-2-methyl-4-(7-((3-morpholinopropyl)amino)-5-phenoxypyrazolo[1,5-a]pyrimidin-3-yl)benzamide], the GI50 is 100 to 500 nM in assay [1]; 100 to 500 nM in assay [2]; 100 to 500 nM in assay [3]; at most 100 nM in assay [4]; 100 to 500 nM in assay [5]. The IC50 at human TTK was below 100 nM.

As for `Cc1cc(-c2cnn3c(NCC4CCOCC4)cc(Oc4ccccc4)nc23)ccc1C(=O)NC1CC1` [Example B1], the GI50 in assay [1], in assay [2], in assay [3], in assay [4] and in assay [5] was at most 100 nM in each case. Also, the IC50 at human TTK is below 100 nM.

Turning to `Cc1cc(-c2cnn3c(NCCN4CCOCC4)cc(Oc4ccccc4)nc23)ccc1C(=O)NC1CC1` [Example B5, N-cyclopropyl-2-methyl-4-(7-((2-morpholinoethyl)amino)-5-phenoxypyrazolo[1,5-a]pyrimidin-3-yl)benzamide], the GI50 in assay [1], in assay [2], in assay [3], in assay [4] and in assay [5] was at most 100 nM throughout. Moreover, the IC50 on human TTK is below 100 nM.

For the compound `O=C(NC1CC1)c1ccc(-c2cnn3c(NCC4CCOCC4)cc(Oc4ccccc4)nc23)cc1` [Example B3, N-cyclopropyl-4-(5-phenoxy-7-(((tetrahydro-2H-pyran-4-yl)methyl)amino)pyrazolo[1,5-a]pyrimidin-3-yl)benzamide], the GI50 was 100 to 500 nM in assay [1]; at most 100 nM in assay [2]; 100 to 500 nM in assay [3]; at most 100 nM in assay [4]; 100 to 500 nM in assay [5]. The IC50 on human TTK was below 100 nM.

(Values after patent publication US9573954B2, “Pyrazolopyrimidine compounds” (University Health Network, priority 2012, dated 2017).)
